According to patent US9308157B2, “Whitening cosmetic” (AJINOMOTO CO., INC., priority 2011, dated 2016):
Values joined by “and” are separate entries in the source; they are usually repeats but may differ in a detail not shown here. Equal values may be shown once. Each block holds one compound with its values, some of them ahead of it.

Legend:
Format in all cases: cell-based
[1] = system: B16 melanoma; assay: Melanin production rate measurement (Experimental Example 1, 6 well plate, medium + cell melanin); settings: for melanin production suppressive effect / whitening effect when combined as component (B): combined with (A) N-Ac-CP2Et; for melanin production suppressive effect / whitening effect when combined as component (B) / melanin production suppressing effect / whitening effect when combined as component (B): summary of Table 1, highest grade stated; for melanin production suppressing effect / whitening effect when combined as component (B): combined with (A) N-Ac-CP; for activity at 20000 µM: 20 mM; for activity at 22500 µM: 22.5 mM
Protocol: B16 melanoma was cultured in DMEM (Dulbecco's Modified Eagle Medium) (high glucose, containing 10% serum). After confluence, the cells were seeded on a 6 well plate. The next day, each well medium was exchanged with DMEM (300 μM tyrosine added) added with each evaluation sample at a given evaluation concentration (Table 1), and the cells were cultured for 3 days. […] The medium was recovered, and centrifuged at 10000 rpm for 10 min. The absorbance of the supernatant at 450 nm was measured by spectrophotometer. The medium was recovered, and the cells were rinsed once with PBS (phosphate-buffered saline). A blending solution of 4% aqueous sodium hydroxide solution and dimethyl sulfoxide (9:1) was added to the well, and the mixture was stood at room temperature for 10 min. The cells were dissolved and recovered, and centrifuged at 3500 rpm for 10 min. The absorbance (450 nm) of the supernatant was measured by spectrophotometer. The total of the melanin amount in the medium and in the cell was calculated from the analytical curve drawn using synthetic melanin. By setting the calculated value 3 days after addition of each sample at a given concentration as a relative percentage to the calculated value of the control (no sample addition) defined as 100%, the melanin production rate of each sample to the melanin amount in the control as 100% was calculated. When a sample was dissolved dimethyl sulfoxide and then added, a sample containing 0.1% dimethyl sulfoxide was used as a control (no sample addition). The melanin production rate was standardized from the amount of cell protein obtained in Experimental Example 2.
(§1) The spectrophotometer used in this melanin production suppression test was DU800, manufactured by BECKMAN COULTER.
The melanin production rate of each sample was measured for a single use and combined use, and the effect of the combined use was evaluated by the following criteria using the theoretical value.
The theoretical value was melanin production rate (%) by single use of component (A)×melanin production rate (%) by single use of component (B)/100.

[2] = system: B16 melanoma; assay: Cell viability rate measurement (Experimental Example 2, cell protein amount); settings: for cell viability rate (single): single use, 3 days; for safety when combined as component (B): summary of Table 1, highest grade stated
Protocol: B16 melanoma was cultured in DMEM (Dulbecco's Modified Eagle Medium) (high glucose, containing 10% serum). After confluence, the cells were seeded on a 6 well plate. The next day, each well medium was exchanged with DMEM (300 μM tyrosine added) added with each evaluation sample at a given evaluation concentration (Table 1), and the cells were cultured for 3 days. The medium was recovered, and the cells were rinsed once with PBS (phosphate-buffered saline). A blending solution of 4% aqueous sodium hydroxide solution and dimethyl sulfoxide (9:1) was added to the well, and the mixture was stood at room temperature for 10 min. The cells were dissolved and recovered, and centrifuged at 3500 rpm for 10 min, and the supernatant was diluted 3-fold with milli-Q water. Solution A (DC Protein Assay; BIO RAD, 100 μl) was added to the diluted solution (20 μl) and the mixture was admixed in a vortex. Solution B (DC Protein Assay; BIO RAD, 800 μl) was added and mixed therewith, and the mixture was stood at room temperature for 15 min. After standing, the absorbance (750 nm) was measured by a spectrophotometer. In addition, the analytical curve of albumin was determined, the protein amount of the above-mentioned solution was calculated, and the relative rate was taken as a viability rate.
as §1
The cell viability rate of each sample was measured for a single use and combined use, and the effect of the combined use was evaluated by the following criteria using the degree of toxic mitigation.
The degree of toxic mitigation was cell viability rate (%) by combined use of component (A) and component (B)−cell viability rate (%) by single use of component (B).

[3] = system: B16 melanoma; assay: Melanin production rate measurement (Experimental Example 3, 96 well plate, 5-25 mM); settings: for IC50: Mus musculus, B16, 72 h, 3 days, samples 5-25 mM, read-out: concentration suppressing melanin production by 50%
Protocol: The cysteine derivatives of Synthetic Example 1 and Synthetic Example 3 were measured for a melanin production rate for comparison of a whitening effect. B16 melanoma was cultured in DMEM (Dulbecco's Modified Eagle Medium) (containing high glucose, serum 10%). After confluence, it was seeded in a 96 well plate. The next day, each well medium was exchanged with DMEM added with each evaluation sample adjusted to 5-25 mM, and the cells were cultured for 3 days. The absorbance at 450 nm was measured by a microplatereader. By setting the measurement value 3 days after addition of each sample at a given concentration as a relative percentage to the measurement value of the control (no sample addition) defined as 100%, the melanin production rate of each sample to the melanin amount in the control as 100% was calculated.
The calculated concentrations of the cysteine derivatives of Synthetic Example 1 and Synthetic Example 3 necessary for suppressing the melanin production rate by 50% are shown in Table 2.
The microplatereader used in this melanin production suppressing test was MULTISKAN FC manufactured by Thermo Fisher Scientific Inc.

[4] = Mus musculus, B16, 72 h, single use, 3 days, control = 100%

SMILES: COc1ccc(C(=O)O)c(O)c1 [4-MS, 4-methoxy salicylic acid]
activity at 5000 µM ([1]; Mus musculus, B16, 72 h, 5 mM (0.0084%), single use, 3 days, control = 100%): 100%
melanin production suppressive effect / whitening effect when combined as component (B) [1]: extremely remarkably improved
cell viability rate (single) ([2]; 5 mM (0.0084%)): 87.0%

SMILES: N[C@@H](CCC(=O)N[C@@H](CS)C(=O)NCC(=O)O)C(=O)O [GSH, glutathione (reduced type)]
activity at 500 µM ([1]; Mus musculus, B16, 72 h, 0.5 mM, single use, 3 days, control = 100%): 100%
activity at 2000 µM ([1]; Mus musculus, B16, 72 h, 2 mM, single use, 3 days, control = 100%): 100%
melanin production suppressive effect / whitening effect when combined as component (B) [1]: improved
melanin production suppressing effect / whitening effect when combined as component (B) [1]: extremely remarkably improved
cell viability rate (single) ([2]; 0.5 mM): 94.4%
cell viability rate (single) ([2]; 2 mM): 67.8%
safety when combined as component (B) ([2]; combined with (A) N-Ac-CP2Et): remarkably improved
safety when combined as component (B) ([2]; combined with (A) N-Ac-CP): remarkably improved

IC50 [3]: 18.9 mM
SMILES: CCOC(=O)C1(C)SCC(C(=O)O)N1C(C)=O (stereo not shown) [N—Ac-CP2Et, N-acetyl-2-methylthiazolidine-2,4-dicarboxylic acid 2-ethyl ester]
activity at 15000 µM ([1]; Mus musculus, B16, 72 h, 15 mM, single use, 3 days, control = 100%): 92.2%
activity at 20000 µM [1, 4]: 62%
activity at 22500 µM [1, 4]: 48.6%
cell viability rate (single) ([2]; 15 mM): 105.7%
cell viability rate (single) ([2]; 20 mM): 101.5%
cell viability rate (single) ([2]; 22.5 mM): 98.6%

SMILES: CC(=O)N1C(C(=O)O)CSC1(C)C(=O)O (stereo not shown) [N—Ac-CP, N-acetyl-2-methylthiazolidine-2,4-dicarboxylic acid]
activity at 20000 µM [1, 4]: 59.4%
activity at 22500 µM [1, 4]: 45.1%
activity at 25000 µM ([1]; Mus musculus, B16, 72 h, 25 mM, single use, 3 days, control = 100%): 35.3%
cell viability rate (single) ([2]; 20 mM): 95.6%
cell viability rate (single) ([2]; 22.5 mM): 100.6%
cell viability rate (single) ([2]; 25 mM): 97.8%

IC50 [3]: 16.6 mM
SMILES: CCOC(=O)[C@]1(C)SC[C@@H](C(=O)O)N1C(C)=O [Synthetic Example 3, (2S,4R)-N-acetyl-2-methylthiazolidine-2,4-dicarboxylic acid 2-ethyl ester]
melanin production suppressing effect compared with Synthetic Example 1 ([3]; from Table 2): stronger

SMILES: OC[C@H]1O[C@@H](Oc2ccc(O)cc2)[C@H](O)[C@@H](O)[C@@H]1O [arbutin]
melanin production suppressive effect / whitening effect when combined as component (B) [1]: extremely remarkably improved
melanin production suppressing effect / whitening effect when combined as component (B) [1]: improved
cell viability rate (single) ([2]; 0.5 mM): 85.5% and 96.5%
safety when combined as component (B) ([2]; combined with (A) N-Ac-CP2Et): improved
safety when combined as component (B) ([2]; combined with (A) N-Ac-CP): improved

SMILES: CCCCCCCCCCCCCCCCOC1=C(O)C(=O)O[C@@H]1[C@@H](O)CO [cetyl ascorbyl ether, 3-o-cetyl ascorbyl ether]
Melanin production rate (single) ([1]; 30 μM, single use, 3 days, control = 100%): 72.8% and 67.6%
melanin production suppressive effect / whitening effect when combined as component (B) [1]: remarkably improved
melanin production suppressing effect / whitening effect when combined as component (B) [1]: remarkably improved
cell viability rate (single) ([2]; 30 μM): 75.8%

SMILES: O=c1oc2c(O)c(O)cc3c(=O)oc4c(O)c(O)cc1c4c23 [ellagic acid]
activity at 6 µM ([1]; Mus musculus, B16, 72 h, 6 μM, single use, 3 days, control = 100%): 100%
melanin production suppressive effect / whitening effect when combined as component (B) [1]: improved
cell viability rate (single) ([2]; 6 μM): 96.1%
safety when combined as component (B) ([2]; combined with (A) N-Ac-CP2Et): extremely remarkably improved

SMILES: O=c1cc(CO)occ1O [kojic acid]
activity at 250 µM ([1]; Mus musculus, B16, 72 h, 0.25 mM, single use, 3 days, control = 100%): 66%
melanin production suppressive effect / whitening effect when combined as component (B) [1]: extremely remarkably improved
cell viability rate (single) ([2]; 0.25 mM): 99.1%
safety when combined as component (B) ([2]; combined with (A) N-Ac-CP2Et): extremely remarkably improved

SMILES: CCCCC/C=C\C/C=C\CCCCCCCC(=O)O [linoleic acid]
activity at 75 µM ([1]; Mus musculus, B16, 72 h, 75 μM, single use, 3 days, control = 100%): 71.3%
melanin production suppressive effect / whitening effect when combined as component (B) [1]: improved
cell viability rate (single) ([2]; 75 μM): 105.2%
safety when combined as component (B) ([2]; combined with (A) N-Ac-CP2Et): remarkably improved

SMILES: CCCCCCc1ccc(O)cc1O [rcinol, 4-hexylresorcinol]
activity at 12.5 µM ([1]; Mus musculus, B16, 72 h, 12.5 μM, single use, 3 days, control = 100%): 66.2%
melanin production suppressive effect / whitening effect when combined as component (B) [1]: improved
cell viability rate (single) ([2]; 12.5 μM): 94.3%
safety when combined as component (B) ([2]; combined with (A) N-Ac-CP2Et): remarkably improved

SMILES: NC[C@H]1CC[C@H](C(=O)O)CC1 [tranexamic acid, trans-4-(aminomethyl)-cyclohexanecarboxylic acid]
activity at 10000 µM ([1]; Mus musculus, B16, 72 h, 10 mM, single use, 3 days, control = 100%): 100%
melanin production suppressive effect / whitening effect when combined as component (B) [1]: extremely remarkably improved
cell viability rate (single) ([2]; 10 mM): 93.1%
safety when combined as component (B) ([2]; combined with (A) N-Ac-CP2Et): remarkably improved
